In patent US9326961B2, “Diet and methods for improving learning capacity, mood and behavior in mammals” (COAPE, LTD, priority 2010, dated 2016):

Experiments:
horse = details: horses, cited from earlier work
dogs (slow learners) = experiment: Discrimination learning, T-maze test (Test B) after three weeks on assigned diet; assay type: in vivo, dog; details: diet supplementation, compared with adding tryptophan to the diet
Experimental: To determine the effect of diet on learning capability, 81 dogs of various ages, types and sex were recruited from dog training clubs and colleagues of the experimenter; however, one dog had to be withdrawn from the study. Inclusion into the study required that the dogs were not receiving any veterinary treatment or medication for behavioral problems. All dogs were in good health, having been fully vaccinated and wormed. Dogs were tested in simple tests that required no lengthy training time. […] Each dog's baseline learning capability was established on its performance in Test A. It was determined that 15 of the dogs were fast learners, while 65 were slow learners.
Each owner was supplied an information sheet advising how to introduce the new diet over a period of days, to ensure that no digestion problems occurred from a sudden change of food. The dogs remained on the assigned diet for a period of three weeks and their learning capability was re-evaluated according to their performance in Test B. Latency to learn the task was used as a measure of learning capability and specific displacement activities were monitored to evaluate the effect on various behavior patterns. […]
The dogs' latency to learn was measured in the time it took them, to achieve success, measured as 100% of correct responses in five consecutive trials. […]

| SMILES | toxicity (horse; high doses given orally, presumably toxic hindgut metabolite) | effect on endurance capacity (horse; high doses) | behavioral effect (horse; low doses) | enhancing serotonin levels in the brain, as measured by improved behavior and learning ability (dogs (slow learners)) |
| --- | --- | --- | --- | --- |
| N[C@@H](Cc1c[nH]c2ccccc12)C(=O)O [Tryptophan] | may cause hemolytic anemia | reduce endurance capacity | mild excitement |  |
| CC(C)C[C@H](N)C(=O)O [leucine] |  |  |  | as effective in enhancing serotonin levels in the brain as adding tryptophan to the diet |
